Assay results: patent US20250376483A1, “PRODRUGS OF PAN-KRAS INHIBITORS” (Mirati Therapeutics, Inc., priority 2022, published 2025)

Experiments:
[1] = Whole Blood Stability Assay (mouse whole blood); format: in vitro ADME; details: CD-1 mouse blood, EDTA-K2, final conc. 2 μM, 37° C., 0-120 min; for half-life at 2 μM: male, fresh whole blood, read-out: Mouse Whole Blood Stability t1/2
Experimental: Whole Blood Stability Assay
This Example illustrates that exemplary compounds of the present invention is cleavage in mouse whole blood.
(§1) Test Compounds and Stock Solutions: Stock Conc. 10 mM; Final Conc. 2 μM
(§2) Test Compound and Control Working Solution Preparation:
• Intermediate solution: 5 μL of compound stock solution (10 mM in dimethyl sulfoxide (DMSO)) were diluted with […] of DMSO (intermediate solution concentration: 1 mM, 100% DMSO) • Propantheline bromide (control) intermediate solution: 5 μL of propantheline stock solution (10 mM in ultra-pure water) were diluted with 45 μL of ultra-pure water (intermediate solution concentration: 1 mM) • Working solution 1: 20 μL of test compound intermediate solution (1 mM) were diluted with 180 μL of 45% ACN/H2O (working solution concentration: […], 40.5% ACN, 10% DMSO) • Working solution 2: 20 μL of control intermediate solution (1 mM) were diluted with 180 μL of 45% ACN/H2O (working solution concentration: 100 μM, 40.5% ACN, 10% DMSO) • Species/Matrix: CD-1 Mouse Blood • No. of Individuals: n>3 Male • Anticoagulant Used: EDTA-K2
• The fresh blood was collected on the day of experiment and pre-warmed in a water bath at 37° C. • Using an Apricot automation workstation, 98 μL/well of blank blood were added to all 96-well reaction plates (Blank, T0, T10, T30, T60 and T120). • An Apricot automation workstation was used to add 2 μL/well of working solution (100 μM) to all reaction plates except Blank (T0, T10, T30, T60 and T120). • All reaction plates containing mixtures of compound and blood were incubated at 37° C. in water bath. • The reaction plates were incubated at 37° C., and timer was started. • At the end of incubation, mixed 100 μL water with 100 μL spiked blood samples, then added 800 μL of stop solution (200 ng/mL tolbutamide and 200 ng/mL labetalol in ACN) to precipitate protein. Mixed thoroughly. • Each plate was sealed and shaken for 20 minutes. • After shaking, each plate was centrifuged at 4000 rpm and 4° C. for 20 minutes. • After centrifugation, an Apricot automation workstation was used to transfer 150 μL of supernatant from each reaction plate to its corresponding bioanalysis plate. • Each bioanalysis plate was submitted to LC-MS/MS analysis.
• The % remaining of test compound after incubation in blood was calculated using following equation:
(§3) [formula] • where PAR is the peak area ratio of analyte versus internal standard (IS) • The appointed incubation time points are TO (0 min), Tn (n=0, 10, 30, 60 and 120 min)

[2] = Plasma Stability Assay (human plasma); format: in vitro ADME; details: both sexes; pooled human plasma, heparin, final conc. 2 μM, 37° C., 0-120 min; read-out: Human Plasma Stability t1/2
Experimental: This Example illustrates that exemplary compounds of the present invention is cleavage in human plasma.
as §1, §2
• Test compound intermediate solution: 10 μL of compound stock solution (10 mM in dimethyl sulfoxide (DMSO)) were diluted with 90 μL of DMSO (intermediate solution concentration: 1 mM, 100% DMSO) • Control intermediate solution: 10 μL of control stock solution (10 mM in dimethyl sulfoxide (DMSO)) were diluted with 90 μL of DMSO (intermediate solution concentration: 1 mM, 100% DMSO) • Species/Matrix: Human Plasma • No. of Individuals: 3 Male & 3 Female • Anticoagulant Used: Heparin
• The pooled frozen plasma was thawed in a water bath at 37° C. prior to experiment. Plasma was centrifuged at 4000 rpm for 5 min and the clots were removed if any. • Using an Apricot automation workstation, 98 μL/well of blank plasma were added to all 96-well reaction plates. (Blank, T0, T10, T30, T60 and T120) • An Apricot automation workstation was used to add 2 μL/well of working solution (100 μM) to all reaction plates except Blank. (T0, T10, T30, T60 and T120) • All reaction plates containing mixtures of compound and plasma were incubated at 37° C. in water bath. • The reaction plates were incubated at 37° C., and timer was started. • At the end of incubation, added 500 μL of stop solution (200 ng/mL tolbutamide and 200 ng/mL labetalol in ACN) to precipitate protein. Mixed thoroughly. • Each plate was sealed and shaken for 20 minutes. • After shaking, each plate was centrifuged at 4000 rpm and 4° C. for 20 minutes • After centrifugation, an Apricot automation workstation was used to transfer 50 μL supernatant into 100 μL HPLC water. • Each bioanalysis plate was sealed and shaken for 10 minutes prior to LC-MS/MS analysis Data Analysis • The % remaining of test compound after incubation in blood was calculated using following equation:
as §3

Row | SMILES | Mouse Whole Blood Stability t1/2 [1] | half-life at 2 μM [2] | half-life at 2 μM [1]
1 | CCc1c(F)ccc2cc(OC(=O)C(C)C)cc(-c3ncc4c(N5C[C@@H]6C[C@H](C5)[C@H](O)C6)nc(OC[C@@]56CCCN5C[C@H](F)C6)nc4c3F)c12 [Example 3, 5-ethyl-6-fluoro-4-(8-fluoro-2-(((2R,7aS)-2-fluorotetrahydro-1H-pyrrolizin-7a(5H)-yl)methoxy)-4-((1R,5R,6R)-6-hydroxy-3-azabicyclo[3.2.1]octan-3-yl)pyrido[4,3-d]pyrimidin-7-yl)naphthalen-2-yl isobutyrate] |  | 27 min | 3 min
2 | CCOC(=O)Oc1cc(-c2ncc3c(N4C[C@@H]5C[C@H](C4)[C@H](O)C5)nc(OC[C@@]45CCCN4C[C@H](F)C5)nc3c2F)c2c(CC)c(F)ccc2c1 [Example 12, ethyl (5-ethyl-6-fluoro-4-(8-fluoro-2-(((2R,7aS)-2-fluorotetrahydro-1H-pyrrolizin-7a(5H)-yl)methoxy)-4-((1R,5R,6R)-6-hydroxy-3-azabicyclo[3.2.1]octan-3-yl)pyrido[4,3-d]pyrimidin-7-yl)naphthalen-2-yl) carbonate] |  | 26 min | < 5 min
3 | CCc1c(F)ccc2cc(OCOC(=O)N(C)C)cc(-c3ncc4c(N5C[C@@H]6C[C@H](C5)[C@H](O)C6)nc(OC[C@@]56CCCN5C[C@H](F)C6)nc4c3F)c12 [Example 20, ((5-ethyl-6-fluoro-4-(8-fluoro-2-(((2R,7aS)-2-fluorotetrahydro-1H-pyrrolizin-7a(5H)-yl)methoxy)-4-((1R,5R,6R)-6-hydroxy-3-azabicyclo[3.2.1]octan-3-yl)pyrido[4,3-d]pyrimidin-7-yl)naphthalen-2-yl)oxy)methyl dimethylcarbamate] |  | > 289 min | > 289 min
4 | CCc1c(F)ccc2cc(OC(=O)OC(C)(C)C)cc(-c3ncc4c(N5C[C@@H]6C[C@H](C5)[C@H](O)C6)nc(OC[C@@]56CCCN5C[C@H](F)C6)nc4c3F)c12 [Example 19, tert-butyl (5-ethyl-6-fluoro-4-(8-fluoro-2-(((2R,7aS)-2-fluorotetrahydro-1H-pyrrolizin-7a(5H)-yl)methoxy)-4-((1R,5R,6R)-6-hydroxy-3-azabicyclo[3.2.1]octan-3-yl)pyrido[4,3-d]pyrimidin-7-yl)naphthalen-2-yl) carbonate] |  | > 289 min | 3 min
5 | CCc1c(F)ccc2cc(OC(=O)C(C)(C)C)cc(-c3ncc4c(N5C[C@@H]6C[C@H](C5)[C@H](O)C6)nc(OC[C@@]56CCCN5C[C@H](F)C6)nc4c3F)c12 [Example 5, 5-ethyl-6-fluoro-4-(8-fluoro-2-(((2R,7aS)-2-fluorotetrahydro-1H-pyrrolizin-7a(5H)-yl)methoxy)-4-((1R,5R,6R)-6-hydroxy-3-azabicyclo[3.2.1]octan-3-yl)pyrido[4,3-d]pyrimidin-7-yl)naphthalen-2-yl pivalate] |  | 67 min | 2 min

Next, values leading:

Row | Mouse Whole Blood Stability t1/2 [1] | half-life at 2 μM [2] | half-life at 2 μM [1] | SMILES
6 | 1 min | 38 min |  | CCc1c(F)ccc2cc(OC(=O)C3(C)COC3)cc(N3CCc4c(nc(OC[C@@]56CCCN5C[C@H](F)C6)nc4N4CCC[C@]5(C4)NC(=O)NC5=O)C3)c12 [Example 62, 4-(4-((R)-2,4-dioxo-1,3,7-triazaspiro[4.5]decan-7-yl)-2-(((2R,7aS)-2-fluorotetrahydro-1H-pyrrolizin-7a(5H)-yl)methoxy)-5,8-dihydropyrido[3,4-d]pyrimidin-7(6H)-yl)-5-ethyl-6-fluoronaphthalen-2-yl 3-methyloxetane-3-carboxylate]
7 | 1 min | > 289 min |  | CCc1c(F)ccc2cc(OC(=O)C(C)(C)C)cc(N3CCc4c(nc(OC[C@@]56CCCN5C[C@H](F)C6)nc4N4CCC[C@]5(C4)NC(=O)NC5=O)C3)c12 [Example 39, 4-(4-((R)-2,4-dioxo-1,3,7-triazaspiro[4.5]decan-7-yl)-2-(((2R,7aS)-2-fluorotetrahydro-1H-pyrrolizin-7a(5H)-yl)methoxy)-5,8-dihydropyrido[3,4-d]pyrimidin-7(6H)-yl)-5-ethyl-6-fluoronaphthalen-2-yl pivalate]
8 | 1 min | 267 min |  | CCc1c(F)ccc2cc(OC(=O)C34CCC(C3)C4)cc(N3CCc4c(nc(OC[C@@]56CCCN5C[C@H](F)C6)nc4N4CCC[C@]5(C4)NC(=O)NC5=O)C3)c12 [Example 67, 4-(4-((R)-2,4-dioxo-1,3,7-triazaspiro[4.5]decan-7-yl)-2-(((2R,7aS)-2-fluorotetrahydro-1H-pyrrolizin-7a(5H)-yl)methoxy)-5,8-dihydropyrido[3,4-d]pyrimidin-7(6H)-yl)-5-ethyl-6-fluoronaphthalen-2-yl bicyclo[2.1.1]hexane-1-carboxylate]
9 |  | 116 min | 13 min | CCc1c(F)ccc2cc(OC(=O)OC(C)(C)C)cc(N3CCc4c(nc(OC[C@@]56CCCN5C[C@H](F)C6)nc4N4CCC[C@]5(C4)NC(=O)NC5=O)C3)c12 [Example 46, tert-butyl (4-(4-((R)-2,4-dioxo-1,3,7-triazaspiro[4.5]decan-7-yl)-2-(((2R,7aS)-2-fluorotetrahydro-1H-pyrrolizin-7a(5H)-yl)methoxy)-5,8-dihydropyrido[3,4-d]pyrimidin-7(6H)-yl)-5-ethyl-6-fluoronaphthalen-2-yl) carbonate]
10 | 1 min | 41 min |  | CCc1c(F)ccc2cc(OC(=O)C3CCCC3)cc(-c3ncc4c(N5C[C@@H]6C[C@H](C5)[C@H](O)C6)nc(OC[C@@]56CCCN5C[C@H](F)C6)nc4c3F)c12 [Example 17, 5-ethyl-6-fluoro-4-(8-fluoro-2-(((2R,7aS)-2-fluorotetrahydro-1H-pyrrolizin-7a(5H)-yl)methoxy)-4-((1R,5R,6R)-6-hydroxy-3-azabicyclo[3.2.1]octan-3-yl)pyrido[4,3-d]pyrimidin-7-yl)naphthalen-2-yl cyclopentanecarboxylate]
11 |  | > 289 min | 7 min | CCc1c(F)ccc2cc(OC(=O)C34CCC(CC3)CC4)cc(N3CCc4c(nc(OC[C@@]56CCCN5C[C@H](F)C6)nc4N4CCC[C@]5(C4)NC(=O)NC5=O)C3)c12 [Example 66, 4-(4-((R)-2,4-dioxo-1,3,7-triazaspiro[4.5]decan-7-yl)-2-(((2R,7aS)-2-fluorotetrahydro-1H-pyrrolizin-7a(5H)-yl)methoxy)-5,8-dihydropyrido[3,4-d]pyrimidin-7(6H)-yl)-5-ethyl-6-fluoronaphthalen-2-yl bicyclo[2.2.2]octane-1-carboxylate]
12 | 1 min | 142 min |  | CCCCCC(=O)Oc1cc(N2CCc3c(nc(OC[C@@]45CCCN4C[C@H](F)C5)nc3N3CCC[C@]4(C3)NC(=O)NC4=O)C2)c2c(CC)c(F)ccc2c1 [Example 44, 4-(4-((R)-2,4-dioxo-1,3,7-triazaspiro[4.5]decan-7-yl)-2-(((2R,7aS)-2-fluorotetrahydro-1H-pyrrolizin-7a(5H)-yl)methoxy)-5,8-dihydropyrido[3,4-d]pyrimidin-7(6H)-yl)-5-ethyl-6-fluoronaphthalen-2-yl hexanoate]
